Source: patent publication US20190374572A1, “KAOLINIC CLAYS WITH ANTIMICROBIAL ACTIVITY” (IMERYS USA, INC., priority 2017, published 2019)
Marks after values point to notes of the source that are not given here.

Columns and labels:
E. coli [1] = experiment: CFU-based bacterial assay; type: cell-based
Procedure: Each sample set was evaluated using at least one of the following assays: (1) a CFU-based bacterial assay; […] As explained above, following sample incubation the samples were evaluated for the level of bacterial growth using a CFU-based bacterial assay and/or a UV-visible bacterial assay. The CFU-based bacterial assay involves serially diluting samples by various dilution factors, plating the surface of pre-poured LB plates, and manually counting the resulting sample cultures to measure the level of growth based on log10 CFU/ml. CFU per ml were calculated by counting the number of colonies on the plate with growths ranging from 30 and 300, and then applying the equation (1): In this CFU-based bacterial assay, the levels of activity corresponding to the control samples (no E. coli) were set as the zero points.

E. coli [2] = experiment: UV-visible bacterial assay (optical density at 570 nm); type: cell-based

Structure (SMILES)	24 Hour log10 CFU/ml (E. coli [1]) [log10 CFU/ml]	Antibacterial potential category from OD at 570 nm (E. coli [2])	UV-Vis Abs @ 570 nm (Optical Density (OD)) (E. coli [2])
O.O.O.O.O.O.O.O=S(=O)([O-])[O-].[Fe+2] [Example 20, iron (II) sulfate heptahydrate]	8.8	1.172 ^s) (key: Complete Kill Candidate (<0.250); p: Inhibition-Kill Candidate (0.250-0.350); q: Inhibition Candidate (0.351-0.450); <10^8 Growth Candidate (0.451-1.250); Robust Growth Candidate (>1.251))	–
O.O.O.O.O.O=S(=O)([O-])[O-].[Cu+2] [Example 24, copper (II) sulfate pentahydrate]	0	0.055 ^p) (key: Complete Kill Candidate (<0.250); p: Inhibition-Kill Candidate (0.250-0.350); q: Inhibition Candidate (0.351-0.450); <10^8 Growth Candidate (0.451-1.250); Robust Growth Candidate (>1.251))	0.055 ^p)
O.O.O.O.O.O=S(=O)([O-])[O-].[Cu+2] [Example 23, copper (II) sulfate pentahydrate]	2.4	–	–
O.O.O.O.O.O.O.O=S(=O)([O-])[O-].[Fe+2] [Example 21, iron (II) sulfate heptahydrate]	0	0.291 ^q) (key: Complete Kill Candidate (<0.250); p: Inhibition-Kill Candidate (0.250-0.350); q: Inhibition Candidate (0.351-0.450); <10^8 Growth Candidate (0.451-1.250); Robust Growth Candidate (>1.251))	–
O.O.O.O.O.O=S(=O)([O-])[O-].[Cu+2] [Example 22, copper (II) sulfate pentahydrate]	7.8	0.734 ^r) (key: Complete Kill Candidate (<0.250); p: Inhibition-Kill Candidate (0.250-0.350); q: Inhibition Candidate (0.351-0.450); <10^8 Growth Candidate (0.451-1.250); Robust Growth Candidate (>1.251))	0.734 ^r)
